Structures are written as SMILES. Counter-ions that a name gives are not always drawn. Where only a bound is given, the exact number is not on record here.

For the experiment, the target named is ROCK2 (Homo sapiens, UniProt O75116). Description: ROCK2 kinase inhibition assay (LABCHIP 3000 Reader, FITC peptide substrate).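 Note: rho kinase reaction read by separating phosphorylated from unphosphorylated peptide on chip, with inhibition of kinase activity computed per concentration across a dose-response series.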
Sequence of ROCK2 (O75116 whole entry, species assumed): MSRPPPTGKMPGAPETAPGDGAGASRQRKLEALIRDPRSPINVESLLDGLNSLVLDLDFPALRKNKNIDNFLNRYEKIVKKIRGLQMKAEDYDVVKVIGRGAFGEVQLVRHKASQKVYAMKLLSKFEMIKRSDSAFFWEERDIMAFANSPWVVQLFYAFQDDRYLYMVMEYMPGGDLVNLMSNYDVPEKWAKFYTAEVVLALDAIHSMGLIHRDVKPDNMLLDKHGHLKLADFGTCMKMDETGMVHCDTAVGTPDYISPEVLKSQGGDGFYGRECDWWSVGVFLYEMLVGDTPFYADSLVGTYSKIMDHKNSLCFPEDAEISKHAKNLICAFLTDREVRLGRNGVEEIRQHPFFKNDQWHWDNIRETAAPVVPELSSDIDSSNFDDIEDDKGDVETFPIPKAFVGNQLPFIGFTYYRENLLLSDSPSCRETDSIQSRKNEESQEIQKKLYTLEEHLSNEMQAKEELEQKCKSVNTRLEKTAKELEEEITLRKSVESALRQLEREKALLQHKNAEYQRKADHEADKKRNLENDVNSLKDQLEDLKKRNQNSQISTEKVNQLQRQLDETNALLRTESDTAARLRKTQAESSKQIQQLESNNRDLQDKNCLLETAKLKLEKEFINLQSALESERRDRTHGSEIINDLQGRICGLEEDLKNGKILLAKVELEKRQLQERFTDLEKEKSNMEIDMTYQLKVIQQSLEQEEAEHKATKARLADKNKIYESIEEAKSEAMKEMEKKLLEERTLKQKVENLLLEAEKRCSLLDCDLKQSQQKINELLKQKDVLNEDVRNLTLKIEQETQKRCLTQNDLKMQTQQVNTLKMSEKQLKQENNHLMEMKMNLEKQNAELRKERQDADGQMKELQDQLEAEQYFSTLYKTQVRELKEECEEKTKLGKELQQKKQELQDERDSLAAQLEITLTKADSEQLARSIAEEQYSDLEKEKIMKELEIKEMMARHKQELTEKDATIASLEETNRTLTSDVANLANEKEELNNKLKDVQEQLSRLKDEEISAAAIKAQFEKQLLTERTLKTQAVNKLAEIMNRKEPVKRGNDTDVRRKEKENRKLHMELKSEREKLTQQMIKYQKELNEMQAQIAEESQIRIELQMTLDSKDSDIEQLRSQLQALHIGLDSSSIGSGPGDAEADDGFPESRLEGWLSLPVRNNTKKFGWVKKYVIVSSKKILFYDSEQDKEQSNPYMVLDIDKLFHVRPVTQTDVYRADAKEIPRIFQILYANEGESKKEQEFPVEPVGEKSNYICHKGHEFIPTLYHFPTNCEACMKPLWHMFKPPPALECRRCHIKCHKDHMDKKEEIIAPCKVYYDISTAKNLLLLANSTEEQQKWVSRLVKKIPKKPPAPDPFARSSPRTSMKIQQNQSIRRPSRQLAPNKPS
Take `CC(C)(O)COc1ccc2c(C(=O)NC3CC4(C3)CC(Oc3cc(C5CNC5)ccc3C(N)=O)C4)cnn2c1` (centres unmarked) [Example 226, N-(6-(5-(azetidin-3-yl)-2-carbamoylphenoxy)spiro[3.3]heptan-2-yl)-6-(2-hydroxy-2-methylpropoxy)pyrazolo[1,5-a]pyridine-3-carboxamide]: the IC50 is 50 to 250 nM.

`COc1cc(C(=O)N[C@H]2CC3(C2)C[C@H](Oc2ncccc2C(N)=O)C3)ccc1-n1cnc(C)c1` (stereo partly drawn) [Example 79, 2-((aR)-6-(3-methoxy-4-(4-methyl-1H-imidazol-1-yl)benzamido)spiro-[3.3]heptan-2-yl)oxy) nicotinamide, trifluoroacetate]: the IC50 lay in the range of 50 to 250 nM.

In turn, `CN(c1ccccc1)S(=O)(=O)c1cccc(C(=O)N[C@H]2CC3(C2)C[C@H](Oc2ncccc2C(N)=O)C3)c1` (stereo partly drawn) [Example 131, 2-(((aR)-6-(3-(N-methyl-N-phenylsulfamoyl)benzamido)spiro[3.3]heptan-2-yl)oxy) nicotinamide, trifluoroacetate] had an IC50 of 5 to 50 nM.

`COCCOCCOc1ccc2c(C(=O)N[C@H]3CC4(C3)C[C@H](Oc3ncccc3C(N)=O)C4)cnn2c1` (stereo partly drawn) [Example 121, N-((aR)-6-((3-carbamoylpyridin-2-yl)oxy)spiro[3.3]heptan-2-yl)-6-(2-(2-methoxyethoxy)ethoxy)pyrazolo [1,5-a]pyridine-3-carboxamide, trifluoroacetate] displayed an IC50 of 5 to 50 nM.

With `N#Cc1cc(F)cc(C(=O)N[C@H]2CC3(C2)C[C@H](Oc2ncccc2C(N)=O)C3)c1` (stereo partly drawn) [Example 157, 2-(((aR)-6-(3-cyano-5-fluorobenzamido)spiro[3.3]heptan-2-yl)oxy) nicotinamide], the IC50 lay in the range of 50 to 250 nM.

In the case of `NC(=O)c1cccnc1O[C@H]1CC2(C[C@H](NC(=O)c3cc(S(N)(=O)=O)c(F)cc3Cl)C2)C1` (stereo partly drawn) [Example 148, 2-(((aR)-6-(2-chloro-4-fluoro-5-sulfamoylbenzamido)spiro[3.3]heptan-2-yl)oxy) nicotinamide, trifluoroacetate], the IC50 fell in the range of 50 to 250 nM.

Molecule `[H][C@]1(Oc2cnccc2C(N)=O)C[C@@]2(C[C@H](NC(=O)c3cnn4cc(OCC(C)(C)O)ccc34)C2)C1` (stereo partly drawn) [Example 45, N-((aR)-6-((4-carbamoylpyridin-3-yl)oxy)spiro[3.3]heptan-2-yl)-6-(2-hydroxy-2-methylpropoxy)pyrazolo[1,5-a]pyridine-3-carboxamide] returned an IC50 of 50 to 250 nM.

`CC(C)(O)Cn1nc(C(=O)N[C@H]2CC3(C2)C[C@H](Oc2ncccc2C(N)=O)C3)c2ccc(Br)cc21` (stereo partly drawn) [Example 81, 6-bromo-N-((aR)-6-((3-carbamoylpyridin-2-yl)oxy)spiro[3.3]heptan-2-yl)-1-(2-hydroxy-2-methylpropyl)-1H-indazole-3-carboxamdie, trifluoroacetate] returned an IC50 of 5 to 50 nM.

For `CC(C)(O)COc1ccc2c(C(=O)NC3CC4(C3)CC(Oc3cc(-c5cccc(F)n5)ccc3C(N)=O)C4)cnn2c1` (centres unmarked) [Example 231, N-(6-(2-carbamoyl-5-(6-fluoropyridin-2-yl)phenoxy)spiro[3.3]heptan-2-yl)-6-(2-hydroxy-2-methylpropoxy)pyrazolo[1,5-a]pyridine-3-carboxamide], the IC50 was < 5 nM.

Take `CC(C)(O)COc1ccc2c(C(=O)NC3CC4(C3)CC(Oc3cc(-c5cccc(F)c5)ccc3C(N)=O)C4)cnn2c1` (centres unmarked) [Example 242, N-(6-((4-carbamoyl-3′-fluoro-[1,1′-biphenyl]-3-yl)oxy)spiro[3.3]heptan-2-yl)-6-(2-hydroxy-2-methylpropoxy)pyrazolo[1,5-a]pyridine-3-carboxamide]: the IC50 lay in the range of 5 to 50 nM.

Molecule `NC(=O)c1cccnc1O[C@H]1CC2(C[C@H](NC(=O)c3nn(Cc4ccccc4)c4ccccc34)C2)C1` (stereo partly drawn) [Example 132, 1-benzyl-N-((aR)-6-((3-carbamoylpyridin-2-yl)oxy)spiro[3.3]heptan-2-yl)-1H-indazole-3-carboxamide, trifluoroacetate] gave a 50% inhibitory concentration (IC50) of 5 to 50 nM.

Broadly, the IC50 is the concentration that inhibits the measured activity by half.

(Values after patent US10829501B2 (BRISTOL-MYERS SQUIBB COMPANY, priority 2016, dated 2020).)
